Read-outs that look alike come from different tables or passages of the source.
What was measured:
Assay type in all cases: cell-based
[1] = tested on: HeLa cells (ATCC CCL-002); assay: Necrosis assay; details: Homo sapiens, 0.5 h, read-out: HeLa necrosis EC50 range
Procedure: HeLa cells (ATCC CCL-002) were grown in minimal essential medium (Invitrogen catalog no. 42360) containing 10% fetal bovine serum, 100 IU/ml penicillin and 100 μg/ml streptomycin. 4,000-6,000 cells were seeded into 96-well black ViewPlates-plates, clear bottom, (Perkin Elmer) in 100 μl medium and incubated overnight. Compounds were dissolved and pre-diluted in DMSO in 96-well polypropylene plates (Greiner) in a concentration range of 15 μM to 600 μM. At the time of the experiment cell plates were placed on heating blocks at 37° C., medium was removed and 40 μl fresh, pre-warmed medium was added per well. Cells were incubated for 15 min before addition of compounds. In parallel, 3 μl of compounds were diluted with 197 μl growth medium on a Tecan freedom-EVO pipetting station using 250 μl/s pipetting speed, in order to ensure effective mixing of the highly concentrated compound solutions with the aqueous phase. These pre-dilution plates were then equilibrated on heating blocks at 37° C. for 10 min. 80 μl pre-diluted compound were transferred manually to the corresponding wells containing HeLa cells yielding compound concentrations of 10 μM to 400 μM. Control conditions were 1% DMSO in growth medium (100% viability) and 400 μM ingenol mebutate in growth medium (0% viability). Plates were incubated on the heating blocks at 37° C. for 30 min. At the end of the incubation 10 μl PrestoBlue reagent (Invitrogen) were added to each well, plates were sealed with black seal, followed by incubation at 37° C. for 10 min with gentle shaking (150 rpm). Subsequently, plates were placed at room temperature for 20-30 min. Plates were read immediately after on an Envision Fluorescence reader (Perkin Elmer) with excitation at 535 nm and emission at 630 nm. Test compound titration curves were fitted to a four-parameter sigmoidal curve after normalizing the effect of the test compound to the effect of the positive control (4 10^−4 M PEP0005/ingenol mebutate). AbsEC50 denotes the concentration of test compound producing 50% effect.

[2] = tested on: Primary human epidermal keratinocytes, HeKa; assay: HeKa cytokine release (IL-8) assay
Procedure: Primary human epidermal keratinocytes, HeKa, were seeded (10.000 cells/well) in 96-well plates the day before the assay. Test compounds were diluted in DMSO (dimethyl sulfoxide) and further diluted in assay medium and pipetted into wells of 96 well-plates containing HeKa cells. The plates were incubated for 6 h at 37° C. in humidified air with 5% CO2. Plates are centrifuged briefly to spin down cells at 4° C., the supernatant was removed and analysed by Meso Scale Discovery (MSD) 4-spot cytokine assay (Pro-inflammatory II Ultra Sensitive kit, MSD, MD, USA). The MSD assay employs a sandwich immunoassay format where capture antibodies were coated in a patterned array on the bottom of the wells of a 4-Spot-Multi-MSD plate. Standard samples were incubated in the MULTI-SPOT plates as well, and the cytokine (IL-8) binds to its corresponding capture antibody spot. The cytokine level was quantitated on a SECTOR™ Imager using a cytokine-specific Detection Antibody labelled with MSD SULFO-TAG™ reagent.
(§1) Test compound titration curves were fitted to a four-parameter sigmoidal curve after normalizing the effect of the test compound to the effect of the positive control (1.5×10^−7 M PEP0005). Rel EC50 denotes the concentration of test compound producing an effect that is midway between the fitted top and bottom.

[3] = tested on: PMN's (polymorphonuclear leukocytes); assay: Neutrophil oxidative burst assay; details: Leukocyte, 40 min, read-out: Neutrophil oxidative burst Rel EC50 range
Procedure: PMN's (polymorphonuclear leukocytes) were isolated and purified from fresh buffy coats by sequential sedimentation, density centrifugation and lysis of contaminating erythrocytes. Buffy coats were incubated with 2% methocel for 30-45 min to differentially sediment red blood cells. The leukocyte-rich supernatant was transferred to lymphoprep tubes to remove mononuclear cells by density centrifugation (400×g, 30 min). The pellet was resuspended and any remaining erythrocytes lysed using 0.2% NaCl for 30 sec before restoring isotonicity by the addition of 1.2% NaCl. This step was repeated until the cell pellet appears relatively free of red blood cells. Cells were resuspended in DPBS (Dulbecco's Phosphate Buffered Saline) (w.o. Ca^2+, Mg^2+) and the concentration adjusted to 1.4×10^6 cells/ml in HBSS (Hanks Balanced Salt solution) (w Ca^2+, Mg^2+) containing 0.1% BSA (Bovine Serum Albumin) and 5 mM glucose just prior to assay initiation. Titrated reference and test compounds were pre-mixed with HE (Hydroethidine) (10 μM final assay concentration) before addition to 96-well plates containing 2.5×10^5 cells. Following 40 min incubation at RT, changes in the respiratory burst was estimated by measuring fluorescence at 579 nm (excitation: 485 nm) using an Envision plate reader.
as §1, with “(5×10^−7” for “(1.5×10^−7”, “bottom. Abs EC50 is the concentration of test compound that provokes a response corresponding to 50% of the maximal effect associated with the positive control (5×10^−7 M PEP0005).” for “bottom.”

[4] = 6 h, read-out: HeKa cytokine release (IL-8) Rel EC50 range

CC1=C[C@]23C(=O)[C@@H](C=C(CO)[C@@H](O)[C@]2(O)[C@H]1OC(=O)c1c(N)cccc1F)[C@H]1[C@@H](C[C@H]3C)C1(C)C [Compound 341, Ingenol 3-(2-amino-6-fluoro-benzoate)]
EC50 [1]: < 150000 nM | EC50 [2, 4]: < 20 nM | EC50 [3]: < 20 nM

CNc1cccc(Cl)c1C(=O)O[C@H]1C(C)=C[C@]23C(=O)[C@@H](C=C(CO)[C@@H](O)[C@]12O)[C@H]1[C@@H](C[C@H]3C)C1(C)C [Compound 342, Ingenol 3-(2-chloro-6-methylamino-benzoate)]
EC50 [1]: < 150000 nM | EC50 [2, 4]: < 20 nM | EC50 [3]: 20 to 100 nM

CNc1cccc(F)c1C(=O)O[C@H]1C(C)=C[C@]23C(=O)[C@@H](C=C(CO)[C@@H](O)[C@]12O)[C@H]1[C@@H](C[C@H]3C)C1(C)C [Compound 343, Ingenol 3-(2-fluoro-6-methylamino-benzoate)]
EC50 [1]: < 150000 nM | EC50 [2, 4]: < 20 nM | EC50 [3]: < 20 nM

CC1=C[C@]23C(=O)[C@@H](C=C(CO)[C@@H](O)[C@]2(O)[C@H]1OC(=O)C1=C(C)CCCC1(C)C)[C@H]1[C@@H](C[C@H]3C)C1(C)C [Compound 345, Ingenol 3-(2,6,6-trimethylcyclohexene-1-carboxylate)]
EC50 [1]: < 150000 nM | EC50 [2, 4]: < 20 nM | EC50 [3]: < 20 nM

C/C=C(/C)C(=O)O[C@H]1C(C)=C[C@]23C(=O)[C@@H](C=C(CO)[C@@H](O)[C@]12O)[C@H]1[C@@H](C[C@H]3C)C1(C)C [Ingenol-3-angelate, reference compound]
EC50 ([1]; 30 min at 37° C., PrestoBlue, normalized to 4 10^−4 M PEP0005/ingenol mebutate): 150000 to 350000 nM | EC50 ([2]; 6 h at 37° C., normalized to positive control 1.5×10^−7 M PEP0005, read-out: HeKa cytokine release (IL-8) Rel EC50 range): < 20 nM | EC50 ([3]; 40 min incubation at RT, normalized to positive control 5×10^−7 M PEP0005): < 20 nM

From patent US9656945B2, “3-acyl-ingenols II” (LEO LABORATORIES LIMITED, priority 2010, dated 2017)
